According to PubChem BioAssay (NCI):
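All cell lines were grown in 96-well plates and treated with compound for 48 hours. GI50 = concentration required for 50% inhibition of growth. TGI denotes the concentration required for complete inhibition of growth.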

Experiments:
Experiment in all cases: NCI-60 cell line screen, 48 h
[1] = system: CAKI-1 renal
[2] = system: NCI-H226 lung
[3] = system: HCC-2998 colon
[4] = system: MALME-3M melanoma
[5] = system: MDA-MB-231 breast
[6] = system: SF-295 CNS
[7] = system: M14 melanoma
[8] = system: COLO 205 colon
[9] = system: HT29 colon
[10] = system: OVCAR-4 ovarian
[11] = system: IGROV1 ovarian
[12] = system: KM12 colon
[13] = system: SK-MEL-28 melanoma
[14] = system: A498 renal
[15] = system: SK-MEL-5 melanoma
[16] = system: LOX IMVI melanoma
[17] = system: SW-620 colon
[18] = system: UACC-62 melanoma
[19] = system: HOP-62 NSCLC
[20] = system: MOLT-4 leukemia
[21] = system: T-47D breast
[22] = system: OVCAR-5 ovarian
[23] = system: MDA-MB-435
[24] = system: SR leukemia
[25] = system: SF-539 CNS
[26] = system: BT-549 breast
[27] = system: SNB-19 CNS
[28] = system: SF-268 CNS
[29] = system: TK-10 renal
[30] = system: CCRF-CEM leukemia
[31] = system: SK-OV-3 ovarian
[32] = system: HOP-92 NSCLC
[33] = system: NCI-H522 lung
[34] = system: OVCAR-3 ovarian
[35] = system: OVCAR-8 ovarian
[36] = system: MCF7 breast
[37] = system: NCI-H23 lung
[38] = system: PC-3 prostate
[39] = system: HCT-15 colon
[40] = system: NCI/ADR-RES ovarian
[41] = system: ACHN renal
[42] = system: NCI-H460 lung
[43] = system: EKVX NSCLC
[44] = system: A549 NSCLC
[45] = system: DU-145 prostate
[46] = system: SK-MEL-2 melanoma
[47] = system: SN12C renal
[48] = system: UO-31 renal
[49] = system: 786-0 renal
[50] = system: K-562 leukemia
[51] = system: RPMI-8226 leukemia
[52] = system: RXF 393 renal
[53] = system: HCT-116 colon
[54] = system: SNB-75 CNS
[55] = system: HL-60(TB) leukemia
[56] = system: U251 CNS
[57] = system: UACC-257 melanoma
[58] = system: HS 578T breast

With `O=c1oc2ccc(-c3ccc(F)cc3F)cc2c(=O)n1-c1ccc(Cl)c(C(F)(F)F)c1` the GI50 [1] was 1.91 µM, the TGI [1] was 6.35 µM and the GI50 [2] was 2.03 µM. The TGI [2] was 6.11 µM, the GI50 [3] was 2.41 µM and the TGI [3] was 6.03 µM. For the same compound, the GI50 [4] was 2.19 µM, the TGI [4] was 5.73 µM and the GI50 [5] was 2.25 µM. For the same compound, the TGI [5] was 6.93 µM, the GI50 [6] was 1.81 µM and the TGI [6] was 3.62 µM. The GI50 [7] was 2.45 µM, the TGI [7] was 6.79 µM and the GI50 [8] was 2.89 µM. For the same compound, the TGI [8] was 8.54 µM, the GI50 [9] was 3.07 µM and the TGI [9] was over 100 µM. The GI50 [10] was 3.16 µM, the TGI [10] was over 100 µM and the GI50 [11] was 3.14 µM. The TGI [11] was over 100 µM, the GI50 [12] was 2.36 µM and the TGI [12] was 5.85 µM. For the same compound, the GI50 [13] was 2.05 µM, the TGI [13] was 5.77 µM and the GI50 [14] was 0.656 µM. The TGI [14] was 2.4 µM, the GI50 [15] was 1.6 µM and the TGI [15] was 3.05 µM. The GI50 [16] was 2.18 µM, the TGI [16] was 4.91 µM and the GI50 [17] was 3.16 µM. The TGI [17] was 11.7 µM, the GI50 [18] was 1.55 µM and the TGI [18] was 4.15 µM. For the same compound, the GI50 [19] was 1.93 µM, the TGI [19] was 4.09 µM and the GI50 [20] was 2.33 µM. The TGI [20] was 5.45 µM, the GI50 [21] was 0.585 µM and the TGI [21] was 4.34 µM. The GI50 [22] was 4.31 µM, the TGI [22] was over 100 µM and the GI50 [23] was 3.07 µM. It also gave a TGI [23] of 9.83 µM, a GI50 [24] of 2.43 µM and a TGI [24] of 8.8 µM. It also gave a GI50 [25] of 2.54 µM, a TGI [25] of 7.09 µM and a GI50 [26] of 2.06 µM. It also gave a TGI [26] of 5.17 µM, a GI50 [27] of 3.65 µM and a TGI [27] of over 100 µM. It also gave a GI50 [28] of 2.51 µM, a TGI [28] of 9.13 µM and a GI50 [29] of 4.41 µM. For the same compound, the TGI [29] was 19.1 µM, the GI50 [30] was 2.63 µM and the TGI [30] was 8.75 µM. It also gave a GI50 [31] of 2.01 µM, a TGI [31] of 5.17 µM and a GI50 [32] of 1.58 µM. It also gave a TGI [32] of 5.39 µM, a GI50 [33] of 2.09 µM and a TGI [33] of 8.97 µM. For the same compound, the GI50 [34] was 3.17 µM, the TGI [34] was over 100 µM and the GI50 [35] was 2.99 µM. The TGI [35] was over 100 µM, the GI50 [36] was 2.45 µM and the TGI [36] was over 100 µM. The GI50 [37] was 1.83 µM, the TGI [37] was 4.59 µM and the GI50 [38] was 2.95 µM. For the same compound, the TGI [38] was 35.8 µM, the GI50 [39] was 2.04 µM and the TGI [39] was 8.19 µM. For the same compound, the GI50 [40] was 2.49 µM, the TGI [40] was 8.89 µM and the GI50 [41] was 3.12 µM. It also gave a TGI [41] of 9.8 µM, a GI50 [42] of 2.96 µM and a TGI [42] of over 100 µM. It also gave a GI50 [43] of 2.18 µM, a TGI [43] of 7.54 µM and a GI50 [44] of 3.33 µM. It also gave a TGI [44] of over 100 µM, a GI50 [45] of 3.75 µM and a TGI [45] of over 100 µM. It also gave a GI50 [46] of 1.99 µM, a TGI [46] of 4.76 µM and a GI50 [47] of 2.6 µM. It also gave a TGI [47] of 11.7 µM, a GI50 [48] of 2.44 µM and a TGI [48] of 8.4 µM. It also gave a GI50 [49] of 2.34 µM, a TGI [49] of 5.68 µM and a GI50 [50] of 2.38 µM. The TGI [50] was over 100 µM, the GI50 [51] was 2.1 µM and the TGI [51] was 5.9 µM. The GI50 [52] was 1.7 µM, the TGI [52] was 4.59 µM and the GI50 [53] was 1.75 µM. The TGI [53] was 3.49 µM, the GI50 [54] was 1.7 µM and the TGI [54] was 4.2 µM. For the same compound, the GI50 [55] was 2.43 µM, the TGI [55] was 5.35 µM and the GI50 [56] was 2.36 µM. For the same compound, the TGI [56] was 12.5 µM, the GI50 [57] was 1.85 µM and the TGI [57] was 6.44 µM. It also gave a GI50 [58] of 2.42 µM and a TGI [58] of 8.16 µM.
